# In patent US20250382250A1, “STILBENE DERIVATIVE AS AHR AGONIST AND USE THEREOF” (NANJING GRITPHARMACO., LTD., priority 2022, published 2025):
# Marks after values point to notes of the source that are not given here.
# Columns and labels:
# AhR = target: T1, AhR (Homo sapiens, UniProt P35869); test: AhR agonism luciferase reporter gene assay in transfected HepG2 cells; assay type: cell-based; settings: 16 h, ratio of treatment group to blank
# T1 construct: expressed in transfected cells; host or cells: HepG2
# T1 sequence (P35869 11-848): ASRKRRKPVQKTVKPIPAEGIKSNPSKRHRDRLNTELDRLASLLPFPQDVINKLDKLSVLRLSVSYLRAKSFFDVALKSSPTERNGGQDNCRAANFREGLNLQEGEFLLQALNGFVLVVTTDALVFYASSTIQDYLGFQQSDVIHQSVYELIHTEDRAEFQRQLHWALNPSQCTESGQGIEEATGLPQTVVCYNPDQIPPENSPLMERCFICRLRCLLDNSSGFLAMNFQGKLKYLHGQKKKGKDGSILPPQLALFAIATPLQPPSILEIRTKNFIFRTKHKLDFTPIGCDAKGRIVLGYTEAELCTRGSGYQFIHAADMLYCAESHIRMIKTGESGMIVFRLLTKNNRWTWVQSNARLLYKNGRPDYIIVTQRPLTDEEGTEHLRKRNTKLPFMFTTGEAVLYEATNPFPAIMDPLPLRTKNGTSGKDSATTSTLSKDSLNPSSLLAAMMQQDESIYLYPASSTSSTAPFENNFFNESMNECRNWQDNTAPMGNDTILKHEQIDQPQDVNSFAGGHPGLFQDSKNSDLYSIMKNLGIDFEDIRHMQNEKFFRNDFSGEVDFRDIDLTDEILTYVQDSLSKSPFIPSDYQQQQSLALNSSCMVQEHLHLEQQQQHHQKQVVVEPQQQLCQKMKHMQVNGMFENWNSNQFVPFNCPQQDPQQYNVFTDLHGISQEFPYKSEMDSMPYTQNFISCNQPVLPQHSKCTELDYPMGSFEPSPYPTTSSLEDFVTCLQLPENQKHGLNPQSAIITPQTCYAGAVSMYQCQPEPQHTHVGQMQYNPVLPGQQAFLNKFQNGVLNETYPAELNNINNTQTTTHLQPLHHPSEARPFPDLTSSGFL
# Experimental: When the cell confluence reached 80%, the culture medium was replaced with a fresh one, and the transfection working solution was added for transfection overnight. The formula of the working solution is as follows: 1 mL of Opti-MEM+7.5 μg of pCMV-AHR+7.5 μg of pTK-3×DRE-Luc+30 μL of lipo6000. • (2) Cell plating: The transfected cells were digested, prepared into a cell suspension at a concentration of 3×10^5 cells/mL, and then plated on a 96-well plate at 100 µL/well for adherent culture overnight. • (3) Formulation
# The prepared drug-containing culture media and a blank culture medium were added to the 96-well plate described above at 100 μL/well.
# atopic dermatitis = test: DNFB-induced atopic dermatitis mouse model (AD Score); assay type: in vivo, BALB/C mice; parameters: scale not given here; settings: DNFB mice
# Experimental: 56 clean-grade BALB/C mice aged 6-8 weeks were subjected to 5 days of adaptive feeding and then randomized into 7 groups of 8 mice each: • A. Blank control group • B. Modeling+solvent group • C. Modeling+blank matrix group • D. Modeling+positive drug mometasone furoate group • E. Modeling+1 wt % of benvitimod group • F. […] The animal experiments were conducted in accordance with the Experimental Animal Feeding, Management and Use Guidelines of China Pharmaceutical University and in compliance with animal study ethics and regulations. As shown in the above procedures, the solvent control or DNFB was given in the morning for modeling; from day 5, the test compound ointment was administered once every afternoon at 50 mg/dose evenly on the skin surface. The specific administration method is as shown above; Specific procedures: […] Severity of atopic dermatitis was scored using the AD Score criteria The severity of the appearance of dermatitis was evaluated based on 4 indicators: A. erythema/bleeding; B. dryness; C. effusion/crusting; D. edema.
SMILES,AhR receptor agonistic fold (AhR; drug concentration 0.1 μM),AhR receptor agonistic fold (AhR; drug concentration 1 μM),further results
"Oc1cc(/C=C/c2ccc(Cl)cc2)cc(O)c1C1CCCCC1 [Compound 7, (E)-2-cyclohexyl-5-(4-chlorostyryl)-1,3-benzenediol]",5.1 ± 0.4 fold,9.5 ± 0.5 fold,
"Oc1cc(/C=C/c2ccc(Br)cc2)cc(O)c1C1CCCC1 [Compound 4, (E)-2-cyclopentyl-5-(4-bromostyryl)-1,3-benzenediol]",7.8 ± 0.1 fold,14.4 ± 0.3 fold,
"Oc1cc(/C=C/c2cccc(Cl)c2)cc(O)c1C1CCCCC1 [Compound 10, (E)-2-cyclohexyl-5-(3-chlorostyryl)-1,3-benzenediol]",4.5 ± 1.0 fold,14.7 ± 2.3 fold,
"Oc1cc(/C=C/c2ccc(F)c(F)c2F)cc(O)c1C1CCCCC1 [Compound 14, (E)-2-cyclohexyl-5-(2,3,4-trifluorostyryl)-1,3-benzenediol]",13.1 ± 2.4 fold,20.8 ± 1.4 fold,
"Oc1cc(/C=C/c2ccc(Cl)cc2)cc(O)c1C1CCCC1 [Compound 3, (E)-2-cyclopentyl-5-(4-chlorostyryl)-1,3-benzenediol]",4.0 ± 0.5 fold,18.2 ± 0.6 fold,
"O=Cc1c2[nH]c3ccccc3c2cc2[nH]c3ccccc3c12 [Reference 3#, FICZ, reference compound]",2.3 ± 0.2 fold,4.3 ± 0.2 fold,
"Oc1cc(/C=C/c2ccc(F)c(F)c2)cc(O)c1C1CCCCC1 [Compound 11, (E)-2-cyclohexyl-5-(3,4-difluorostyryl)-1,3-benzenediol]",6.6 ± 1.6 fold,20.0 ± 1.6 fold,
"Oc1cc(/C=C/c2cc(F)c(F)c(F)c2)cc(O)c1C1CCCCC1 [Compound 15, (E)-2-cyclohexyl-5-(3,4,5-trifluorostyryl)-1,3-benzenediol]",7.5 ± 1.8 fold,22.2 ± 2.8 fold,
"Oc1cc(/C=C/c2ccccc2)cc(O)c1C1CCCCC1 [Compound 5, (E)-2-cyclohexyl-5-styryl-1,3-benzenediol]",5.8 ± 0.3 fold,16.6 ± 0.7 fold,
"Oc1cc(/C=C/c2ccccc2Cl)cc(O)c1C1CCCCC1 [Compound 9, (E)-2-cyclohexyl-5-(2-chlorostyryl)-1,3-benzenediol]",4.9 ± 1.9 fold,17.1 ± 2.5 fold,
"Oc1cc(/C=C/c2ccc(Br)cc2)cc(O)c1C1CCCCC1 [Compound 8, (E)-2-cyclohexyl-5-(4-bromostyryl)-1,3-benzenediol]",5.2 ± 0.2 fold,11.8 ± 0.7 fold,
"C[C@@H]1C[C@H]2[C@@H]3CCC4=CC(=O)C=C[C@]4(C)[C@@]3(Cl)[C@@H](O)C[C@]2(C)[C@@]1(OC(=O)c1ccco1)C(=O)CCl [Mometasone furoate, mometasone furoate, reference compound]",,,"Back AD score (atopic dermatitis; day 0, before ointment treatment (from day 5)): 0.00 ± 0.00; Back AD score (atopic dermatitis; day 4, before ointment treatment (from day 5)): 3.50 ± 0.61; Back AD score (atopic dermatitis; day 6, ointment 50 mg once daily from day 5 (1.2 wt % 2#/6#, 1 wt % benvitimod)): 5.38 ± 1.65**^b; Back AD score (atopic dermatitis; day 8, ointment 50 mg once daily from day 5 (1.2 wt % 2#/6#, 1 wt % benvitimod)): 6.50 ± 1.22**^a; Back AD score (atopic dermatitis; day 10, ointment 50 mg once daily from day 5 (1.2 wt % 2#/6#, 1 wt % benvitimod)): 5.00 ± 1.00**^aabb"
"Oc1cc(/C=C/c2cccc(F)c2)cc(O)c1C1CCCC1 [Compound 16, (E)-2-cyclopentyl-5-(3-fluorostyryl)-1,3-benzenediol]",6.0 ± 0.8 fold,18.5 ± 2.9 fold,
"CC(C)c1c(O)cc(/C=C/c2ccc(F)cc2)cc1O [Reference 2#, reference compound]",2.5 ± 1.1 fold,7.8 ± 1.0 fold,
"Oc1cc(/C=C/c2cccc(F)c2F)cc(O)c1C1CCCCC1 [Compound 12, (E)-2-cyclohexyl-5-(2,3-difluorostyryl)-1,3-benzenediol]",6.8 ± 0.1 fold,17.1 ± 0.6 fold,
"Oc1cc(/C=C/c2cc(F)cc(F)c2)cc(O)c1C1CCCCC1 [Compound 13, (E)-2-cyclohexyl-5-(3,5-difluorostyryl)-1,3-benzenediol]",9.2 ± 1.2 fold,14.6 ± 0.9 fold,
"Oc1cc(/C=C/c2ccccc2)cc(O)c1C1CCCC1 [Compound 1, (E)-2-cyclopentyl-5-styryl-1,3-benzenediol]",3.1 ± 0.3 fold,12.1 ± 0.4 fold,
